System: patients with HIV-associated KS

SMILES: Cn1cnc2c(F)c(Nc3ccc(Br)cc3Cl)c(C(=O)NOCCO)cc21 [selumetinib, 6-(4-Bromo-2-chloro-phenylamino)-7-fluro-3-methyl-3 H-benzoimidazole-5-carboxylic acid (2-hydroxy-ethoxy)-amide hydrogen sulphate]
- Blood and lymphatic system disorders: Adverse Events Grade3 N (N = patients, any dose): 0
- Blood and lymphatic system disorders: Adverse Reactions Grade 1 N (N = patients, any dose): 3
- Blood and lymphatic system disorders: Adverse Reactions Grade 2 N (N = patients, any dose): 1
- Blood and lymphatic system disorders: Adverse Reactions Grade 3 N (N = patients, any dose): 0
- Cardiac disorders: Adverse Events Grade 1 N (N = patients, any dose): 1
- Cardiac disorders: Adverse Events Grade 2 N (N = patients, any dose): 0
- Cardiac disorders: Adverse Events Grade3 N (N = patients, any dose): 0
- Cardiac disorders: Adverse Reactions Grade 1 N (N = patients, any dose): 0
- Cardiac disorders: Adverse Reactions Grade 2 N (N = patients, any dose): 0
- Cardiac disorders: Adverse Reactions Grade 3 N (N = patients, any dose): 0
- Eye disorders: Adverse Events Grade 1 N (N = patients, any dose): 6
- Eye disorders: Adverse Events Grade 2 N (N = patients, any dose): 3
- Eye disorders: Adverse Events Grade3 N (N = patients, any dose): 0
- Eye disorders: Adverse Reactions Grade 1 N (N = patients, any dose): 5
- Eye disorders: Adverse Reactions Grade 2 N (N = patients, any dose): 3
- Eye disorders: Adverse Reactions Grade 3 N (N = patients, any dose): 0
- Gastrointestinal disorders: Adverse Events Grade 1 N (N = patients, any dose): 12
- Gastrointestinal disorders: Adverse Events Grade 2 N (N = patients, any dose): 7
- Gastrointestinal disorders: Adverse Events Grade3 N (N = patients, any dose): 0
- Gastrointestinal disorders: Adverse Reactions Grade 1 N (N = patients, any dose): 12
- Gastrointestinal disorders: Adverse Reactions Grade 2 N (N = patients, any dose): 6
- Gastrointestinal disorders: Adverse Reactions Grade 3 N (N = patients, any dose): 0
- General disorders and administration site conditions: Adverse Events Grade 1 N (N = patients, any dose): 11
- General disorders and administration site conditions: Adverse Events Grade 2 N (N = patients, any dose): 5
- General disorders and administration site conditions: Adverse Events Grade3 N (N = patients, any dose): 1
- General disorders and administration site conditions: Adverse Reactions Grade 1 N (N = patients, any dose): 10
- General disorders and administration site conditions: Adverse Reactions Grade 2 N (N = patients, any dose): 2
- General disorders and administration site conditions: Adverse Reactions Grade 3 N (N = patients, any dose): 0
- Infections and infestations: Adverse Events Grade 1 N (N = patients, any dose): 2
- Infections and infestations: Adverse Events Grade 2 N (N = patients, any dose): 4
- Infections and infestations: Adverse Events Grade3 N (N = patients, any dose): 0
- Infections and infestations: Adverse Reactions Grade 1 N (N = patients, any dose): 1
- Infections and infestations: Adverse Reactions Grade 2 N (N = patients, any dose): 3
- Infections and infestations: Adverse Reactions Grade 3 N (N = patients, any dose): 0
- Injury, poisoning and procedural complications: Adverse Events Grade 1 N (N = patients, any dose): 2
- Injury, poisoning and procedural complications: Adverse Events Grade 2 N (N = patients, any dose): 1
- Injury, poisoning and procedural complications: Adverse Events Grade3 N (N = patients, any dose): 0
- Injury, poisoning and procedural complications: Adverse Reactions Grade 1 N (N = patients, any dose): 0
- Injury, poisoning and procedural complications: Adverse Reactions Grade 2 N (N = patients, any dose): 0
- Injury, poisoning and procedural complications: Adverse Reactions Grade 3 N (N = patients, any dose): 0
- Investigations: Adverse Events Grade 1 N (N = patients, any dose): 15
- Investigations: Adverse Events Grade 2 N (N = patients, any dose): 4
- Investigations: Adverse Events Grade3 N (N = patients, any dose): 2
- Investigations: Adverse Reactions Grade 1 N (N = patients, any dose): 14
- Investigations: Adverse Reactions Grade 2 N (N = patients, any dose): 3
- Investigations: Adverse Reactions Grade 3 N (N = patients, any dose): 0
- Metabolism and nutrition disorders: Adverse Events Grade 1 N (N = patients, any dose): 5
- Metabolism and nutrition disorders: Adverse Events Grade 2 N (N = patients, any dose): 0
- Metabolism and nutrition disorders: Adverse Events Grade3 N (N = patients, any dose): 0
- Metabolism and nutrition disorders: Adverse Reactions Grade 1 N (N = patients, any dose): 5
- Metabolism and nutrition disorders: Adverse Reactions Grade 2 N (N = patients, any dose): 0
- Metabolism and nutrition disorders: Adverse Reactions Grade 3 N (N = patients, any dose): 0
- Musculoskeletal and connective tissue disorders: Adverse Events Grade 1 N (N = patients, any dose): 4
- Musculoskeletal and connective tissue disorders: Adverse Events Grade 2 N (N = patients, any dose): 0
- Musculoskeletal and connective tissue disorders: Adverse Events Grade3 N (N = patients, any dose): 0
- Musculoskeletal and connective tissue disorders: Adverse Reactions Grade 1 N (N = patients, any dose): 2
- Musculoskeletal and connective tissue disorders: Adverse Reactions Grade 2 N (N = patients, any dose): 0
- Musculoskeletal and connective tissue disorders: Adverse Reactions Grade 3 N (N = patients, any dose): 0
- Nervous system disorders: Adverse Events Grade 1 N (N = patients, any dose): 4
- Nervous system disorders: Adverse Events Grade 2 N (N = patients, any dose): 0
- Nervous system disorders: Adverse Events Grade3 N (N = patients, any dose): 0
- Nervous system disorders: Adverse Reactions Grade 1 N (N = patients, any dose): 4
- Nervous system disorders: Adverse Reactions Grade 2 N (N = patients, any dose): 0
- Nervous system disorders: Adverse Reactions Grade 3 N (N = patients, any dose): 0
- Psychiatric disorders: Adverse Events Grade 1 N (N = patients, any dose): 3
- Psychiatric disorders: Adverse Events Grade 2 N (N = patients, any dose): 0
- Psychiatric disorders: Adverse Events Grade3 N (N = patients, any dose): 0
- Psychiatric disorders: Adverse Reactions Grade 1 N (N = patients, any dose): 3
- Psychiatric disorders: Adverse Reactions Grade 2 N (N = patients, any dose): 0
- Psychiatric disorders: Adverse Reactions Grade 3 N (N = patients, any dose): 0
- Renal and urinary disorders: Adverse Events Grade 1 N (N = patients, any dose): 2
- Renal and urinary disorders: Adverse Events Grade 2 N (N = patients, any dose): 0
- Renal and urinary disorders: Adverse Events Grade3 N (N = patients, any dose): 0
- Renal and urinary disorders: Adverse Reactions Grade 1 N (N = patients, any dose): 1
- Renal and urinary disorders: Adverse Reactions Grade 2 N (N = patients, any dose): 0
- Renal and urinary disorders: Adverse Reactions Grade 3 N (N = patients, any dose): 0
- Respiratory, thoracic and mediastinal disorders: Adverse Events Grade 1 N (N = patients, any dose): 4
- Respiratory, thoracic and mediastinal disorders: Adverse Events Grade 2 N (N = patients, any dose): 1
- Respiratory, thoracic and mediastinal disorders: Adverse Events Grade3 N (N = patients, any dose): 0
- Respiratory, thoracic and mediastinal disorders: Adverse Reactions Grade 1 N (N = patients, any dose): 4
- Respiratory, thoracic and mediastinal disorders: Adverse Reactions Grade 2 N (N = patients, any dose): 1
- Respiratory, thoracic and mediastinal disorders: Adverse Reactions Grade 3 N (N = patients, any dose): 0
- Skin and subcutaneous tissue disorders: Adverse Events Grade 1 N (N = patients, any dose): 10
- Skin and subcutaneous tissue disorders: Adverse Events Grade 2 N (N = patients, any dose): 9
- Skin and subcutaneous tissue disorders: Adverse Events Grade3 N (N = patients, any dose): 3
- Skin and subcutaneous tissue disorders: Adverse Reactions Grade 1 N (N = patients, any dose): 10
- Skin and subcutaneous tissue disorders: Adverse Reactions Grade 2 N (N = patients, any dose): 9
- Skin and subcutaneous tissue disorders: Adverse Reactions Grade 3 N (N = patients, any dose): 3
- Vascular disorders: Adverse Events Grade 1 N (N = patients, any dose): 2
- Vascular disorders: Adverse Events Grade 2 N (N = patients, any dose): 0
- Vascular disorders: Adverse Events Grade3 N (N = patients, any dose): 0
- Vascular disorders: Adverse Reactions Grade 1 N (N = patients, any dose): 0
- Vascular disorders: Adverse Reactions Grade 2 N (N = patients, any dose): 0
- Vascular disorders: Adverse Reactions Grade 3 N (N = patients, any dose): 0
- further AEs reported (human, in vivo): 366
- ALT Increased: Number of patients experiencing at least one grade <2AE (n (%) of 16 patients): 5 (31%)
- AST Increased: Number of patients experiencing at least one grade <2AE (n (%) of 16 patients): 7 (44%)
- Albumin Decreased: Number of patients experiencing at least one grade <2AE (n (%) of 16 patients): 3 (19%)
- CPK Increased: Number of patients experiencing at least one grade <2AE (n (%) of 16 patients): 9 (56%)
- Fatigue: Number of patients experiencing at least one grade <2AE (n (%) of 16 patients): 9 (56%)
- Nausea: Number of patients experiencing at least one grade <2AE (n (%) of 16 patients): 7 (44%)
- Red Blood Cell Count Decreased: Number of patients experiencing at least one grade <2AE (n (%) of 16 patients): 7 (44%)
- Vomiting: Number of patients experiencing at least one grade <2AE (n (%) of 16 patients): 3 (19%)
- serious adverse event (SAE), unrelated to study treatment (number): one
- serious adverse reactions (SARs) (number): two
- AEs graded 1 or 2 (number of events): 360
- grade 3 AEs (non-serious) (number of events, in five separate patients): six
- AEs categorised as grade 1 or 2 (of the further 366 AEs): 98%
- AEs deemed as ARs (of the further 366 AEs): 69%

From PMC11921695 (BMC Cancer, 2025)
